Experiments:
Test in all cases: Herbicidal action, field trial, post-emergence
Assay type in all cases: in vivo
Setaria viridis = test system: Setaria viridis
Description: (§1) The growth stages of the different weed or crop plant species are indicated according to the BBCH monograph “Growth stages of mono- and dicotyledonous plants”, 2nd edition, 2001, ed. Uwe Meier, Federal Biological Research Centre for Agriculture and Forestry (Biologische Bundesanstalt für Land und Forstwirtschaft). The respective BBCH stages are mentioned in brackets for the different weed or crop plant species and indicate the BBCH stage for the majority of the respective weed or crop plant species.
(§2) The dose rates of herbicidal ingredients used in each case are indicated for the respective active ingredient in brackets and refer to the amount of active ingredient per hectare (g a.i./ha).
(§3) EC=A+B+C−[((A·B)+(A·C)+(B·C)]100)+(A·B·C/10000)

Zea mays = test system: Zea mays
Description: as §1, §2, §3

Panicum maximum = test system: Panicum maximum
Description: as §1, §2, §3

Echinocloa crus-galli = test system: Echinocloa crus-galli
Description: as §1, §2, §3

Chenopodium album = test system: Chenopodium album
Description: as §1, §2, §3

Polygonum convolvulus = test system: Polygonum convolvulus
Description: as §1, §2, §3

Abutilon theophrasti = conditions: Table 2
Description: as §1, §2

Compound: Cc1ccc2c(c1)[C@H](Nc1nc(N)nc([C@@H](C)F)n1)[C@@H](C)C2 (mixture of isomers) [Indaziflam, N2-[(1R,2S)-2,3-dihydro-2,6-dimethyl-1H-inden-1-yl]-6-[(1RS)-1-fluoroethyl]-1,3,5-triazine-2,4-diamine]
- Herbicidal Activity 13 DAT (EA) (Setaria viridis; 10 g a.i./ha, Table 10): 0%
- Herbicidal Activity 13 DAT (EA) (Setaria viridis; 25 g a.i./ha, Table 10): 0%
- Herbicidal Activity 13 DAT (EA) (Zea mays; 10 g a.i./ha, Table 13): 0%
- Herbicidal Activity 13 DAT (EA) (Zea mays; 25 g a.i./ha, Table 13): 0%
- Herbicidal Activity 13 DAT (EA) (Panicum maximum; 10 g a.i./ha, Table 12): 0%
- Herbicidal Activity 13 DAT (EA) (Panicum maximum; 25 g a.i./ha, Table 12): 0%
- Herbicidal Activity 13 DAT (EA) (Echinocloa crus-galli; 10 g a.i./ha, Table 11): 0%
- Herbicidal Activity 13 DAT (EA) (Echinocloa crus-galli; 25 g a.i./ha, Table 11): 0%
- Herbicidal Activity 13 DAT (EA) (Chenopodium album; 10 g a.i./ha, Table 9): 0%
- Herbicidal Activity 13 DAT (EA) (Chenopodium album; 25 g a.i./ha, Table 9): 10%
- Herbicidal Activity 13 DAT (EA) (Polygonum convolvulus; 10 g a.i./ha, Table 8): 20%
- Herbicidal Activity 13 DAT (EA) (Polygonum convolvulus; 25 g a.i./ha, Table 8): 20%

Compound: O=C(Nc1ccc(F)cc1F)c1cccnc1Oc1cccc(C(F)(F)F)c1 [Diflufenican, diflufenican]
- Herbicidal Activity 13 DAT (EA) (Setaria viridis; 60 g a.i./ha, Table 4): 0%
- Herbicidal Activity 13 DAT (EA) (Setaria viridis; 90 g a.i./ha, Table 10): 0%
- Herbicidal Activity 13 DAT (EA) (Setaria viridis; 150 g a.i./ha, Table 4): 0%
- Herbicidal Activity 13 DAT (EA) (Setaria viridis; 150 g a.i./ha, Table 10): 0%
- Herbicidal Activity 13 DAT (EA) (Zea mays; 60 g a.i./ha, Table 7): 13%
- Herbicidal Activity 13 DAT (EA) (Zea mays; 90 g a.i./ha, Table 13): 10%
- Herbicidal Activity 13 DAT (EA) (Zea mays; 150 g a.i./ha, Table 7): 25%
- Herbicidal Activity 13 DAT (EA) (Zea mays; 150 g a.i./ha, Table 13): 25%
- Herbicidal Activity 13 DAT (EA) (Panicum maximum; 60 g a.i./ha, Table 6): 10%
- Herbicidal Activity 13 DAT (EA) (Panicum maximum; 90 g a.i./ha, Table 12): 10%
- Herbicidal Activity 13 DAT (EA) (Panicum maximum; 150 g a.i./ha, Table 6): 10%
- Herbicidal Activity 13 DAT (EA) (Panicum maximum; 150 g a.i./ha, Table 12): 10%
- Herbicidal Activity 13 DAT (EA) (Echinocloa crus-galli; 60 g a.i./ha, Table 5): 0%
- Herbicidal Activity 13 DAT (EA) (Echinocloa crus-galli; 90 g a.i./ha, Table 11): 0%
- Herbicidal Activity 13 DAT (EA) (Echinocloa crus-galli; 150 g a.i./ha, Table 5): 0%
- Herbicidal Activity 13 DAT (EA) (Echinocloa crus-galli; 150 g a.i./ha, Table 11): 0%
- Herbicidal Activity 13 DAT (EA) (Chenopodium album; 60 g a.i./ha, Table 3): 10%
- Herbicidal Activity 13 DAT (EA) (Chenopodium album; 90 g a.i./ha, Table 9): 10%
- Herbicidal Activity 13 DAT (EA) (Chenopodium album; 150 g a.i./ha, Table 3): 10%
- Herbicidal Activity 13 DAT (EA) (Chenopodium album; 150 g a.i./ha, Table 9): 10%
- Herbicidal Activity 13 DAT (EA) (Polygonum convolvulus; 60 g a.i./ha, Table 1): 40%
- Herbicidal Activity 13 DAT (EA) (Polygonum convolvulus; 90 g a.i./ha, Table 8): 45%
- Herbicidal Activity 13 DAT (EA) (Polygonum convolvulus; 150 g a.i./ha, Table 1): 60%
- Herbicidal Activity 13 DAT (EA) (Polygonum convolvulus; 150 g a.i./ha, Table 8): 60%
- Herbicidal Activity 13 DAT (EA) (Abutilon theophrasti; 60 g a.i./ha): 35%
- Herbicidal Activity 13 DAT (EA) (Abutilon theophrasti; 150 g a.i./ha): 65%

Compound: CCCCCCCCC(=O)O [Pelargonic acid]
- Herbicidal Activity 13 DAT (EA) (Setaria viridis; 6000 g a.i./ha, Table 4): 40%
- Herbicidal Activity 13 DAT (EA) (Setaria viridis; 6000 g a.i./ha, Table 10): 25%
- Herbicidal Activity 13 DAT (EA) (Setaria viridis; 16000 g a.i./ha, Table 4): 55%
- Herbicidal Activity 13 DAT (EA) (Setaria viridis; 16000 g a.i./ha, Table 10): 50%
- Herbicidal Activity 13 DAT (EA) (Zea mays; 6000 g a.i./ha, Table 7): 40%
- Herbicidal Activity 13 DAT (EA) (Zea mays; 6000 g a.i./ha, Table 13): 39%
- Herbicidal Activity 13 DAT (EA) (Zea mays; 16000 g a.i./ha, Table 7): 60%
- Herbicidal Activity 13 DAT (EA) (Zea mays; 16000 g a.i./ha, Table 13): 63%
- Herbicidal Activity 13 DAT (EA) (Panicum maximum; 6000 g a.i./ha, Table 6): 10%
- Herbicidal Activity 13 DAT (EA) (Panicum maximum; 6000 g a.i./ha, Table 12): 15%
- Herbicidal Activity 13 DAT (EA) (Panicum maximum; 16000 g a.i./ha, Table 6): 65%
- Herbicidal Activity 13 DAT (EA) (Panicum maximum; 16000 g a.i./ha, Table 12): 58%
- Herbicidal Activity 13 DAT (EA) (Echinocloa crus-galli; 6000 g a.i./ha, Table 5): 25%
- Herbicidal Activity 13 DAT (EA) (Echinocloa crus-galli; 6000 g a.i./ha, Table 11): 13%
- Herbicidal Activity 13 DAT (EA) (Echinocloa crus-galli; 16000 g a.i./ha, Table 5): 35%
- Herbicidal Activity 13 DAT (EA) (Echinocloa crus-galli; 16000 g a.i./ha, Table 11): 30%
- Herbicidal Activity 13 DAT (EA) (Chenopodium album; 6000 g a.i./ha, Table 3): 45%
- Herbicidal Activity 13 DAT (EA) (Chenopodium album; 6000 g a.i./ha, Table 9): 42.5%
- Herbicidal Activity 13 DAT (EA) (Chenopodium album; 16000 g a.i./ha, Table 3): 88%
- Herbicidal Activity 13 DAT (EA) (Chenopodium album; 16000 g a.i./ha, Table 9): 84%
- Herbicidal Activity 13 DAT (EA) (Polygonum convolvulus; 6000 g a.i./ha, Table 1): 10%
- Herbicidal Activity 13 DAT (EA) (Polygonum convolvulus; 6000 g a.i./ha, Table 8): 25%
- Herbicidal Activity 13 DAT (EA) (Polygonum convolvulus; 16000 g a.i./ha, Table 1): 89%
- Herbicidal Activity 13 DAT (EA) (Polygonum convolvulus; 16000 g a.i./ha, Table 8): 90%
- Herbicidal Activity 13 DAT (EA) (Abutilon theophrasti; 6000 g a.i./ha): 40%
- Herbicidal Activity 13 DAT (EA) (Abutilon theophrasti; 16000 g a.i./ha): 80%

— patent US20230128357A1, “Compound Combination with Superior Herbicidal Activity” (priority 2020, published 2023)
